Test results reported in ChEMBL document CHEMBL4483862, “Open-source discovery of chemical leads for next-generation chemoprotective antimalarials” (2018).

Test system: Plasmodium berghei
Assay: Luciferase/luciferin-expressing antifolate-resistant parasites were used to infect a culture of HepG2 cells that were pre-incubated with compounds. Infected hepatocytes emit light due to the luciferase reaction. Assay results are presented as the percent inhibition of light emission compared to control. […]
Assay type: functional
Conditions: sporozoite; for IC90: read-out: LUCIFERASE INFECTION ASSAY - IC90
[1] = read-out: LUCIFERASE INFECTION ASSAY - IC50

Structure (SMILES)	IC90 [µM]	IC50 [1] [µM]	other results
CC(=O)c1ccc(-c2ccc(C(=O)N3CCc4sccc4C3)o2)cc1	> 10		IC50 (PBLUC_HILL_SLOPE 1.84, PBLUC_R_SQUARED 0.357, read-out: LUCIFERASE INFECTION ASSAY - IC50): 4.1 µM
COc1ccc(N(C(C)=O)c2nc(/C=C/C(=O)c3ccc(F)cc3)cs2)cc1	> 10		IC50 (FFLUC_HILL_SLOPE 11.2, FFLUC_R_SQUARED 0.397, read-out: LUCIFERASE INFECTION ASSAY - IC50): > 10 µM
COc1cc(/C=C/C(=O)c2cccc(Cl)c2)cc(Br)c1OCC(=O)N(C)C	4.57		IC50 (HEPG2TOX_HILL_SLOPE 4.93, 12.4, HEPG2TOX_R_SQUARED 0.976, 0.384, PBLUC_HILL_SLOPE 9.73, 46.2, PBLUC_R_SQUARED 0.151, 0.563, read-out: LUCIFERASE INFECTION ASSAY - IC50): 3.93 µM
Nc1c(-c2ccccc2)[nH]c2ccccc12	> 15.8	> 15.8	
CCc1cccc2c(C(=O)COC(=O)C3CCN(S(=O)(=O)c4ccc(Cl)c(C(F)(F)F)c4)CC3)c[nH]c12	> 10		IC50 (FFLUC_HILL_SLOPE 3.04, FFLUC_R_SQUARED 0.433, read-out: LUCIFERASE INFECTION ASSAY - IC50): > 10 µM
COc1ccc(NC(=O)c2cccc3c[nH]nc23)cc1Cc1ccccc1	9.56		IC50 (PBLUC_HILL_SLOPE 1.42, PBLUC_R_SQUARED 0.679, read-out: LUCIFERASE INFECTION ASSAY - IC50): 2.02 µM
Cc1ccc2[nH]c3c(c2c1)CCCC3NCCCN(C)C (stereo not drawn)	> 11.5		IC50 (HEPG2TOX_HILL_SLOPE 41.7, HEPG2TOX_R_SQUARED 0.689, PBLUC_HILL_SLOPE 2.08, PBLUC_R_SQUARED 0.555, read-out: LUCIFERASE INFECTION ASSAY - IC50): 4.94 µM
OC(c1cc(F)c(F)c(F)c1)c1nnc(Nc2ccc(F)c(Cl)c2)s1 (stereo not drawn)	> 10		IC50 (FFLUC_HILL_SLOPE 0.27, FFLUC_R_SQUARED 0.307, PBLUC_HILL_SLOPE 3.7, PBLUC_R_SQUARED 0.113, read-out: LUCIFERASE INFECTION ASSAY - IC50): 8.96 µM
CC(C)(C)c1ccc(NC(=O)Cc2csc(NC(=O)C3CC3)n2)cc1	> 10	> 10	
Cc1cc(C)c(NC(=O)C(=O)NC(C)C)c(C)c1	11		IC50 (PBLUC_HILL_SLOPE 3.55, PBLUC_R_SQUARED 0.214, read-out: LUCIFERASE INFECTION ASSAY - IC50): 5.93 µM
COc1ccc(-n2c(C)cc(/C=C(\C#N)C(=O)NCC(c3cccs3)N3CCOCC3)c2C)cc1 (stereo not drawn)	> 10		IC50 (PBLUC_HILL_SLOPE 6.75, PBLUC_R_SQUARED 0.0585, read-out: LUCIFERASE INFECTION ASSAY - IC50): > 10 µM
CNc1snc(C)c1C(=O)N(C)Cc1ccc(C(C)C)cc1	0.0634		IC50 (HEPG2TOX_HILL_SLOPE 3.83, HEPG2TOX_R_SQUARED 0.742, PBLUC_HILL_SLOPE 1.58, PBLUC_R_SQUARED 0.865, read-out: LUCIFERASE INFECTION ASSAY - IC50): 0.0158 µM
CC(=O)Nc1ccc(NC(=O)c2cc(C)n(C3CCCCC3)c2C)cc1	> 10		IC50 (HEPG2TOX_HILL_SLOPE 0.564, HEPG2TOX_R_SQUARED 0.119, read-out: LUCIFERASE INFECTION ASSAY - IC50): > 10 µM
Clc1ccc2c(N(Cc3ccco3)Cc3cccs3)ncnc2c1	> 10	> 10	
COCCCn1c(Sc2ncnc3sc4c(c23)CCC4)nc2sc3c(c2c1=O)CCC3	> 10	> 10	
COc1ccccc1-c1cc2c(Nc3ccc4c(c3)OCCO4)nccc2n1C	4.78	2.39	
CC1(C)C2CCC1(C)C(NC(=O)COc1ccc(Br)cc1Cl)C2 (stereo not drawn)	8.17		IC50 (HEPG2TOX_HILL_SLOPE 4.37, HEPG2TOX_R_SQUARED 0.564, PBLUC_HILL_SLOPE 4.64, PBLUC_R_SQUARED 0.01, read-out: LUCIFERASE INFECTION ASSAY - IC50): 5.08 µM
O=c1c(-c2ccc([N+](=O)[O-])cc2)c(-c2ccc(Cl)cc2)cc2[nH]c3ccccc3n12	> 10	> 10	
O=C(NC1CC1)c1ccc(-c2cn3c(-c4ccc5ncccc5c4)cnc3cn2)cc1	> 8.14		IC50 (HEPG2TOX_HILL_SLOPE 8.34, HEPG2TOX_R_SQUARED 0.193, PBLUC_HILL_SLOPE 5.05, PBLUC_R_SQUARED 0.479, read-out: LUCIFERASE INFECTION ASSAY - IC50): 7.19 µM
Clc1ccc(OCCN2CCN(c3ccc4nnnn4n3)CC2)cc1	> 10		IC50 (PBLUC_HILL_SLOPE 2.76, PBLUC_R_SQUARED 0.489, read-out: LUCIFERASE INFECTION ASSAY - IC50): 6.13 µM
CNc1nc2cnc(Nc3ccccc3Cl)cc2n1CC1CC1	> 10	> 10	
O=C(Cc1nc(C23CC4CC(CC(C4)C2)C3)cs1)NCc1ccccc1	> 10	> 10	

Structure (SMILES)	IC90 [µM]	IC50 [1] [µM]	other results
NCc1cccc(-c2cc(-c3cc(C(F)(F)F)cc(C(F)(F)F)c3)cnc2N)c1	> 8.02		IC50 (FFLUC_HILL_SLOPE 0.255, FFLUC_R_SQUARED 0.011, PBLUC_HILL_SLOPE 2.95, PBLUC_R_SQUARED 0.223, read-out: LUCIFERASE INFECTION ASSAY - IC50): 7.98 µM
CC(C)c1ccc(/C=C/C2=NNC(=O)CC2)cc1	> 13.6		IC50 (HEPG2TOX_HILL_SLOPE 0.687, HEPG2TOX_R_SQUARED 0.88, PBLUC_HILL_SLOPE 0.307, PBLUC_R_SQUARED 0.14, read-out: LUCIFERASE INFECTION ASSAY - IC50): > 13.6 µM
COC(=O)c1ccc(/C=C/C(=O)c2ccccc2F)cc1	> 10		IC50 (HEPG2TOX_HILL_SLOPE 28.5, HEPG2TOX_R_SQUARED 0.619, read-out: LUCIFERASE INFECTION ASSAY - IC50): > 10 µM
c1ccc(-c2csc3nc(-c4ccccn4)nc(NC4CC4)c23)cc1	4.93	2.32	
COc1ccc(CN2CCN(c3nc4c(Cl)c(C)nn4c4ccccc34)CC2)cc1OC	> 10		IC50 (HEPG2TOX_HILL_SLOPE 0.0984, HEPG2TOX_R_SQUARED 0.313, PBLUC_HILL_SLOPE 1.53, PBLUC_R_SQUARED 0.0755, read-out: LUCIFERASE INFECTION ASSAY - IC50): > 10 µM
CNC(=O)c1ccc(CN(C2CC2)S(=O)(=O)c2ccc(Br)s2)cc1	> 10		IC50 (PBLUC_HILL_SLOPE 3.54, PBLUC_R_SQUARED 0.19, read-out: LUCIFERASE INFECTION ASSAY - IC50): 5.83 µM
Cc1c(C(=O)Nc2ccccc2C(=O)NC2CC2)cnn1-c1cccc(C(F)(F)F)c1	0.41		IC50 (HEPG2TOX_HILL_SLOPE 8.3, HEPG2TOX_R_SQUARED 0.547, PBLUC_HILL_SLOPE 12.1, PBLUC_R_SQUARED 0.521, read-out: LUCIFERASE INFECTION ASSAY - IC50): 0.342 µM
COc1ccc(C(=O)N2CCN(C(c3ccc(F)cc3)c3ccc(F)cc3)CC2)cc1S(=O)(=O)NCCN(C)C	> 10	> 10	
Cc1cc2c(cc1C)NC(c1c(O)ccc3ccccc13)C1C(=O)CC(C)(C)CC1=N2 (stereo not drawn)	> 8	7.67	
Cc1cc(C(O)=C2Sc3ccccc3C2=O)c(C)n1C	> 10	> 10	
COc1ccccc1CN1C(=O)C=CC1=O	> 15.2		IC50 (HEPG2TOX_HILL_SLOPE 11.1, HEPG2TOX_R_SQUARED 0.957, PBLUC_HILL_SLOPE 12.9, PBLUC_R_SQUARED 0.465, read-out: LUCIFERASE INFECTION ASSAY - IC50): 13.8 µM
CC(C)n1ncc2c(C(=O)NCCCn3ccc4ccccc43)cc(C3CC3)nc21	> 10	> 10	
CCOC(=O)c1cnc2cc(Cl)c(F)cc2c1N1CCOCC1	> 9.74	> 9.74	
CC(CNC(=O)C1(C)CC1(Cl)Cl)N(C)c1ccccc1 (stereo not drawn)	> 10	> 10	
O=c1cc(-c2ccccc2)[nH]c2cc(-c3ccccc3)nn12	> 11.5		IC50 (HEPG2TOX_HILL_SLOPE 1.32, HEPG2TOX_R_SQUARED 0.936, PBLUC_HILL_SLOPE 1.62, PBLUC_R_SQUARED 0.566, read-out: LUCIFERASE INFECTION ASSAY - IC50): 3.75 µM
O=C(Nc1ccccc1C(=O)Nc1nnc(C(F)(F)F)s1)c1ccccc1Cl	2.71		IC50 (HEPG2TOX_HILL_SLOPE 2.99, HEPG2TOX_R_SQUARED 0.762, PBLUC_HILL_SLOPE 9.09, PBLUC_R_SQUARED 0.594, read-out: LUCIFERASE INFECTION ASSAY - IC50): 2.13 µM
CCN(c1ccccc1)S(=O)(=O)c1cc(NC(=O)Nc2ccccc2C#N)ccc1Cl	> 10		IC50 (PBLUC_HILL_SLOPE 14.4, PBLUC_R_SQUARED 0.0813, read-out: LUCIFERASE INFECTION ASSAY - IC50): > 10 µM
FC(F)(F)c1cccnc1N1CCN(c2ccc(NC(=S)NCc3ccccc3)cn2)CC1	> 6.98	> 6.98	
CC(C)N(c1ccccc1)c1ccc(NC(=O)COC(=O)c2ccc(Cl)c(S(=O)(=O)N(Cc3ccccc3)c3ccc(Cl)cc3)c2)cc1	> 10		IC50 (FFLUC_HILL_SLOPE 30.3, FFLUC_R_SQUARED 0.617, PBLUC_HILL_SLOPE 4.64, PBLUC_R_SQUARED 0.334, read-out: LUCIFERASE INFECTION ASSAY - IC50): 9.19 µM
CC(C)c1noc(COC(=O)c2ccc(-c3ccc(O)cc3)cc2)n1	> 10	> 10	
N#CN=c1nc(/C=C/c2ccccc2Cl)[nH]c(-c2ccccc2O)n1	4.29		IC50 (PBLUC_HILL_SLOPE 1.8, PBLUC_R_SQUARED 0.74, read-out: LUCIFERASE INFECTION ASSAY - IC50): 1.26 µM
O=C(Nc1ccc2c(c1)OCO2)C1CCN(c2ccnc3cc(Cl)ccc23)CC1	8.1		IC50 (HEPG2TOX_HILL_SLOPE 0.967, HEPG2TOX_R_SQUARED 0.942, PBLUC_HILL_SLOPE 2.72, PBLUC_R_SQUARED 0.6, read-out: LUCIFERASE INFECTION ASSAY - IC50): 3.61 µM
